According to patent publication US20050197350A1, “Novel quinoline, tetrahydroquinazoline, and pyrimidine derivatives and methods of treatment related to the use thereof” (TAISHO PHARMACEUTICAL CO., LTD., priority 2003, published 2005):
Counter-ions that a name gives are not always drawn.

Molecular target: MCH receptor (Homo sapiens, UniProt Q99705)
Assay: High throughput functional screening FLIPR/FDSS6000 (intracellular Ca2+ evoked by MCH)
Type: cell-based
Conditions: FLIPR/FDSS, antagonist activity vs 50 nM MCH; class by percent of control at 10^−7 M or IC50; read-out: class
Procedure, shortened: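 For antagonist testing, compound-treated cells (30 min, 37 °C) were stimulated with 50 nM MCH and intracellular Ca2+ followed by Fluo4 fluorescence on FLIPR/FDSS6000. Receptor was a constitutively active, non-endogenous MCH receptor; dye loading 4 μM Fluo4-AM, 1 h, 37 °C.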

| IC50 [nM] | Structure (SMILES) |
| --- | --- |
| 50 to 200 | Cc1cnc(N[C@H]2CC[C@@H](NCC(=O)c3ccc(Cl)cc3)CC2)nc1N(C)C [Example 3260, 1-(4-chlorophenyl)-2-[(cis-4-{[4-(dimethylamino)-5-methylpyrimidin-2-yl]amino}cyclohexyl)amino]ethanone] |
| 50 to 200 | Cc1cc(N(C)C)nc(N[C@H]2CC[C@@H](NC(=O)NC(C)(C)c3cc(C(F)(F)F)cc(C(F)(F)F)c3)CC2)n1 [Example 3263, N-{1-[3,5-bis(trifluoromethyl)phenyl]-1-methylethyl}-N′-(cis-4-{[4-(dimethylamino)-6-methylpyrimidin-2-yl]amino}-cyclohexyl)urea] |
| < 50 | Cc1cnc(N[C@H]2CC[C@@H](NC(=O)NC(C)(C)c3ccc(Cl)cc3)CC2)nc1N(C)C [Example 3264, N-[1-(4-chlorophenyl)-1-methylethyl]-N′-(cis-4-{[4-(dimethylamino)-5-methylpyrimidin-2-yl]amino}cyclohexyl)urea] |
| 50 to 200 | Cc1cc(N(C)C)nc(N[C@H]2CC[C@@H](NC(=O)NC(C)(C)c3ccc(Cl)cc3)CC2)n1 [Example 3265, N-[1-(4-chlorophenyl)-1-methylethyl]-N′-(cis-4-{[4-(dimethylamino)-6-methylpyrimidin-2-yl]amino}cyclohexyl)urea] |
| < 50 | Cc1cnc(N[C@H]2CC[C@@H](NC(=O)NC3(c4ccc(Cl)cc4)CC3)CC2)nc1N(C)C [Example 3266, N-[1-(4-chlorophenyl)cyclopropyl]-N′-(cis-4-{[4-(dimethylamino)-5-methylpyrimidin-2-yl]amino}cyclohexyl)urea] |
| < 50 | Cc1cc(N(C)C)nc(N[C@H]2CC[C@@H](NC(=O)NC3(c4ccc(Cl)cc4)CC3)CC2)n1 [Example 3267, N-[1-(4-chlorophenyl)cyclopropyl]-N′-(cis-4-{[4-(dimethylamino)-6-methylpyrimidin-2-yl]amino}cyclohexyl)urea] |
| > 200 | Cc1cc(N(C)C)nc(N[C@H]2CC[C@@H](NC(=O)N(C)C(C)(C)c3cc(C(F)(F)F)cc(C(F)(F)F)c3)CC2)n1 [Example 3268, N-{1-[3,5-bis(trifluoromethyl)phenyl]-1-methylethyl}-N′-(cis-4-{[4-(dimethylamino)-6-methylpyrimidin-2-yl]amino}cyclohexyl)-N-methylurea] |
| < 50 | Cc1cnc(N[C@H]2CC[C@@H](NC(=O)N(C)C(C)(C)c3ccc(Cl)cc3)CC2)nc1N(C)C [Example 3269, N-[1-(4-chlorophenyl)-1-methylethyl]-N′-(cis-4-{[4-(dimethylamino)-5-methylpyrimidin-2-yl]amino}cyclohexyl)-N-methylurea] |
| 50 to 200 | Cc1cc(N(C)C)nc(N[C@H]2CC[C@@H](NC(=O)N(C)C(C)(C)c3ccc(Cl)cc3)CC2)n1 [Example 3270, N-[1-(4-chiorophenyl)-1-methylethyl]-N′-(cis-4-{[4-(dimethylamino)-6-methylpyrimidin-2-yl]amino}cyclohexyl)-N-methylurea] |
| 50 to 200 | Cc1cnc(N[C@H]2CC[C@@H](NC(=O)N(C)C3(c4ccc(Cl)cc4)CC3)CC2)nc1N(C)C [Example 3271, N-[1-(4-chlorophenyl)cyclopropyl]-N′-(cis-4-{[4-(dimethylamino)-5-methylpyrimidin-2-yl]amino}cyclohexyl)-N-methylurea] |

More lines, now with the values behind:

| Structure (SMILES) | IC50 [nM] |
| --- | --- |
| Cc1cnc(N[C@H]2CC[C@@H](NCC(=O)c3ccc(F)c(F)c3)CC2)nc1N(C)C [Example 3261, 1-(3,4-difluorophenyl)-2-[(cis-4-{[4-(dimethylamino)-5-methylpyrimidin-2-yl]amino}cyclohexyl)amino]ethanone] | > 200 |
| Cc1cnc(N[C@H]2CC[C@@H](NCC(=O)c3ccc(Br)cc3)CC2)nc1N(C)C [Example 3262, 1-(4-bromophenyl)-2-[(cis-4-{[4-(dimethylamino)-5-methylpyrimidin-2-yl]amino}cyclohexyl)amino]ethanone] | > 200 |

Same assay, conditions: FLIPR/FDSS, antagonist activity vs 50 nM MCH; class by percent of control at 10^−7 M or IC50; table after the classification; read-out: class

| IC50 [nM] | Structure (SMILES) |
| --- | --- |
| < 50 | Cc1cnc(N[C@H]2CC[C@@H](NC(=O)c3ccc(F)c(Cl)c3)CC2)nc1N(C)C [Example 3228, 3-Chloro-N-[cis-4-(4-dimethylamino-5-methyl-pyrimidin-2-ylamino)-cyclohexyl]-4-fluoro-benzamide hydrochloride] |
| < 50 | Cc1cc(N(C)C)nc(N[C@H]2CC[C@@H](NC(=O)c3ccc(F)c(Cl)c3)CC2)n1 [Example 3230, 3-Chloro-N-[cis-4-(4-dimethylamino-6-methyl-pyrimidin-2-ylamino)-cyclohexyl]-4-fluoro-benzamide hydrochloride] |
| 50 to 200 | CCc1cc(N(C)C)nc(N[C@H]2CC[C@@H](NC(=O)c3ccc(F)c(F)c3)CC2)n1 [Example 3231, N-[cis-4-(4-Dimethylamino-6-ethyl-pyrimidin-2-ylamino)-cyclohexyl]-3,4-difluoro-benzamide hydrochloride] |
| 50 to 200 | CN(C)c1cc(N(C)C)nc(N[C@H]2CC[C@@H](NC(=O)c3ccc(F)c(F)c3)CC2)n1 [Example 3232, N-[cis-4-(4,6-Bis-dimethylamino-pyrimidin-2-ylamino)-cyclohexyl]-3,4-difluoro-benzamide hydrochloride] |
| > 200 | CN(C)c1cc(Cl)nc(N[C@H]2CC[C@@H](NC(=O)c3ccc(F)c(F)c3)CC2)n1 [Example 3234, N-[cis-4-(6-Chloro-4-dimethylamino-pyrimidin-2-ylamino)-cyclohexyl]-3,4-difluoro-benzamide hydrochloride] |

Continued, compound first:

| Structure (SMILES) | IC50 [nM] |
| --- | --- |
| CN(C)c1ccnc(N[C@H]2CC[C@@H](CNC(=O)C3c4ccccc4Oc4ccccc43)CC2)n1 [Example 3221, 9H-Xanthene-9-carboxylic acid [cis-4-(4-dimethylamino-pyrimidin-2-ylamino)-cyclohexylmethyl]-amide hydrochloride] | < 50 |
| CN(C)c1ccnc(N[C@H]2CC[C@@H](CNC(=O)Nc3cccc(Cl)c3Cl)CC2)n1 [Example 3222, 1-(2,3-Dichloro-phenyl)-3-[cis-4-(4-dimethylamino-pyrimidin-2-ylamino)-cyclohexylmethyl]-urea hydrochloride] | < 50 |
| CNc1ccnc(N[C@H]2CC[C@@H](NC(=O)c3ccc(F)c(F)c3)CC2)n1 [Example 3223, 3,4-Difluoro-N-[cis-4-(4-methylamino-pyrimidin-2-ylamino)-cyclohexyl]-benzamide-hydrochloride] | > 200 |
| CNc1ccnc(N[C@H]2CC[C@@H](NC(=O)c3ccc(F)c(Cl)c3)CC2)n1 [Example 3224, 3-Chloro-4-fluoro-N-[cis-4-(4-methylamino-pyrimidin-2-ylamino)-cyclohexyl]-benzamide hydrochloride] | 50 to 200 |
| CCNc1ccnc(N[C@H]2CC[C@@H](NC(=O)c3ccc(F)c(F)c3)CC2)n1 [Example 3225, N-[cis-4-(4-Ethylamino-pyrimidin-2-ylamino)-cyclohexyl]-3,4-difluoro-benzamide hydrochloride] | > 200 |
| CCN(C)c1ccnc(N[C@H]2CC[C@@H](NC(=O)c3ccc(F)c(F)c3)CC2)n1 [Example 3226, N-{cis-4-[4-(Ethyl-methyl-amino)-pyrimidin-2-ylamino]-cyclohexyl}-3,4-difluoro-benzamide hydrochloride] | > 200 |
| CN(CCO)c1ccnc(N[C@H]2CC[C@@H](NC(=O)c3ccc(F)c(F)c3)CC2)n1 [Example 3227, 3,4-Difluoro-N-(cis-4-{4-[(2-hydroxy-ethyl)-methyl-amino]-pyrimidin-2-ylamino}-cyclohexyl)-benzamide hydrochloride] | > 200 |
| CN(C)c1nc(N[C@H]2CC[C@@H](NC(=O)c3ccc(F)c(Cl)c3)CC2)ncc1F [Example 3229, 3-Chloro-N-[cis-4-(4-dimethylamino-5-fluoro-pyrimidin-2-ylamino)-cyclohexyl]-4-fluoro-benzamide hydrochloride] | < 50 |
| CN(C)c1cc(Cl)nc(N[C@H]2CC[C@@H](NC(=O)c3cccnc3Oc3ccccc3)CC2)n1 [Example 3233, N-[cis-4-(6-Chloro-4-dimethylamino-pyrimidin-2-ylamino)-cyclohexyl]-2-phenoxy-nicotinamide hydrochloride] | > 200 |
| Nc1cc(N[C@H]2CC[C@@H](NC(=O)c3ccc(F)c(F)c3)CC2)nc2ccccc12 [Example 3235, N-[cis-4-(4-Amino-quinolin-2-ylamino)-cyclohexyl]-3,4-difluoro-benzamide hydrochloride] | < 50 |
| NC(=O)c1cc(N[C@H]2CC[C@@H](NC(=O)c3ccc(F)c(F)c3)CC2)nc2ccccc12 [Example 3236, 2-(cis-4-{[1-(3,4-Difluoro-phenyl)-methanoyl]-amino}-cyclohexylamino)-quinoline-4-carboxylic acid amide] | > 200 |
| O=C(N[C@H]1CC[C@@H](Nc2cc(C(F)(F)F)c3ccccc3n2)CC1)c1ccc(F)c(F)c1 [Example 3237, 3,4-Difluoro-N-[cis-4-(4-trifluoromethyl-quinolin-2-yl)-amino-cyclohexyl]-benzamide hydrochloride] | > 200 |
| Cc1cc(N[C@H]2CC[C@@H](NC(=O)c3ccc(F)c(F)c3)CC2)nc2ccccc12 [Example 3238, 3,4-Difluoro-N-[cis-4-(4-methyl-quinolin-2-ylamino)-cyclohexyl]-benzamide methanesulfonic acid] | < 50 |
| Cc1cc(N[C@H]2CC[C@@H](NC(=O)c3ccc(F)c(Cl)c3)CC2)nc2ccccc12 [Example 3239, 3-Chloro-4-fluoro-N-[cis-4-(4-methyl-quinolin-2-ylamino)-cyclohexyl]-benzamide methanesulfonic acid] | < 50 |
| COc1cccc(C(=O)N[C@H]2CC[C@@H](Nc3ccc4ccccc4n3)CC2)c1 [Example 3240, 3-Methoxy-N-[cis-4-(quinolin-2-ylamino)-cyclohexyl]-benzamide methanesulfonic acid] | < 50 |
